In PubChem BioAssay (NCI):
Values joined by “and” are separate entries in the source; they are usually repeats but may differ in a detail not shown here. Equal values may be shown once.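 Step 1: Grow cells in 96-well plates. Step 2: Expose to compound for 48 hours at 5 concentrations. Step 3: Interpolate endpoints linearly; if unreached, use highest concentration. GI50: concentration for 50% inhibition of growth. At the TGI there is no net growth.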

Tests used:
Assay in all cases: DTP human tumour cell line panel, 48 h
[1] = tested on: OVCAR-8 ovarian
[2] = tested on: HT29 colon
[3] = tested on: HCT-116 colon
[4] = tested on: LOX IMVI melanoma
[5] = tested on: A549 NSCLC
[6] = tested on: NCI/ADR-RES ovarian
[7] = tested on: UO-31 renal
[8] = tested on: MOLT-4 leukemia
[9] = tested on: UACC-62 melanoma
[10] = tested on: RXF 393 renal

Row | SMILES | GI50 [1] | TGI [1] | GI50 [2] | TGI [2] | GI50 [3] | TGI [3] | GI50 [4] | TGI [4] | GI50 [5] | TGI [5] | GI50 [6] | TGI [6] | GI50 [7] | TGI [7] | GI50 [8] | TGI [8] | GI50 [9] | TGI [9] | GI50 [10] | TGI [10]
1 | O=c1[nH]nc(-c2ccccc2)c2c(-c3ccccc3)onc12 | 0.812 µM | > 100 µM | 0.391 µM | > 100 µM | 0.333 µM | > 100 µM | 0.877 µM | > 100 µM | 0.529 µM | > 100 µM | 0.331 µM | > 100 µM | 0.592 µM | > 100 µM | 0.564 µM | > 65.3 µM | 0.43 µM | > 100 µM | 1.19 µM | > 37.9 µM
2 | COc1cc2nncc(SCc3ccc(Cl)c(Cl)c3)c2cc1OC |  | > 100 µM |  | > 100 µM |  | > 100 µM |  | > 100 µM |  | > 100 µM |  | > 100 µM |  | > 100 µM |  | > 100 µM |  | > 100 µM |  | > 100 µM
3 | O=C1NC(c2ccccc2)N=C2Oc3ccccc3C=C12 (stereo unspecified) |  | > 100 µM |  | > 23.6 µM |  | > 100 µM |  | > 31.6 µM |  | > 100 µM |  | > 31.3 µM |  | > 100 µM |  | > 100 µM |  | > 100 µM |  | > 100 µM
4 | NCCSC(C[N+](=O)[O-])c1ccccc1Cl (stereo unspecified) | 6.43 µM | 23.8 µM | 3.15 µM | 10.9 µM | 1.18 µM | 3.08 µM | 1.69 µM | 3.56 µM | 4.87 µM | 15.5 µM | 9.85 µM | > 23.4 µM | 3.46 µM | 10.1 µM | 10.2 µM | > 25.8 µM | 13.2 µM | 26.3 µM | 2.27 µM | 11.1 µM
5 | COc1cc(-c2oc3c(OC)c(O)cc(O)c3c(=O)c2OC)ccc1O |  | > 100 µM |  | > 100 µM |  | > 100 µM |  | > 55.8 µM |  | > 100 µM |  | > 83.5 µM |  | 14.8 µM |  | 29.4 µM |  | 24.6 µM |  | 51.5 µM
6 | COc1cc2c3cc1Oc1c(OC)c(OC)cc4c1C(Cc1ccc(cc1)Oc1cc(ccc1O)CC3N(C)CC2)N(C)CC4 (stereo unspecified) |  | > 100 µM and 34.8 µM |  | 20.9 µM and 14.1 µM |  | 21 µM and > 100 µM | 6.39 µM and 2.56 µM | 19.1 µM |  | 39.6 µM and 25.2 µM |  | 60.5 µM |  | 21.5 µM and 20.6 µM |  | 30.8 µM and 36.8 µM |  | 28.5 µM and 21.7 µM |  | 5.69 µM and 4.03 µM
7 | CC1=NN(C(=O)c2nn(-c3ccc(Cl)cc3)cc2O)C(=O)C1 | 1.49 µM | > 100 µM | 4.44 µM | > 100 µM | 0.743 µM | > 100 µM | 2.66 µM | > 100 µM | 2.92 µM | > 100 µM | 1.83 µM | > 52.2 µM | 2.87 µM | > 100 µM | 1.24 µM | > 100 µM | 2.28 µM | > 80.8 µM | 2.18 µM | > 76.6 µM
8 | CCCCN(CCCC)CCC(O)c1cc2ccc(C(F)(F)F)cc2c2cc(C(F)(F)F)ccc12 (stereo unspecified) | 1.92 µM | 4.25 µM | 2 µM | 4.41 µM | 1.59 µM | 3.04 µM | 1.66 µM | 3.63 µM | 3.12 µM | 12.1 µM | 2.69 µM | 11.9 µM | 1.89 µM | 12.4 µM | 2.67 µM | 6.66 µM | 2.49 µM | 6.53 µM | 1.56 µM | 3.16 µM
